Experimental data reported in publication PMC7686308, “Overcoming the blood–brain barrier by Annexin A1-binding peptide to target brain tumours” (British Journal of Cancer, 2020).
Ends that are not written are not given here.

Tests used:
[1] = tested on: B16-Luc brain and subcutaneous tumours; assay: B16-Luc dual-tumour model in C57BL/6 mice; format: in vivo, mouse (C57BL/6); details: irinotecan 50 μmoles/kg i.v. daily, 6 days
Procedure: C6-Luc cells (5 × 10^4 suspended in 2 μl PBS) were injected into C57BL/6 mouse brain striatum using a stereotaxic frame as described previously.[21] Seven days later, mice underwent imaging for luciferase-expressing tumours. To do so, 100 μl luciferin (30 mg/ml PBS) was injected peritoneally. Mice were then anesthetised under isoflurane gas (20 ml/min) supplemented with oxygen (1 ml/min) and placed under a camera equipped with a Xenogen IVIS 200 imager at both the SBP and AIST animal facilities. Photon numbers were measured for 1–10 sec or for 1 min. For the dual-tumour model, C6-Luc cells were similarly injected into the brain of NOD-SCID mice. When a brain tumour became detectable by IVIS imager, C6-Luc cells (2 × 10^5 suspended in 100 μl PBS) were injected subcutaneously into the dorsal flank of the same mice. Photon numbers in brain and subcutaneous tumours were measured using the IVIS imager. The dual-tumour model was also produced using B16-Luc cells in the isogeneic C57BL/6 mouse. B16-Luc cells (5 × 10^4) were injected into brains of 8–10-weeks-old C57BL/6 female mice as described above for C6-Luc cells. When brain tumours became detectable, B16-Luc cells (2 × 10^5 cells) were injected subcutaneously into the dorsal flank of the same mouse.
IF7C(RR)-SN38 was injected intravenously through the tail vein into tumour-bearing mice once photon number of C6-Luc brain tumour reached 5 × 10^4, which usually occurred after 2 weeks. IF7C(RR)-SN38 (142 μg or 0.0567 μmoles) dissolved in 10 μl dimethylsulfoxide (DMSO) diluted with 100 μl of 50% Cremophore EL in ethanol plus 90 μl PBS was injected intravenously through the tail vein. As the average body weight of a mouse was 18 g, IF7C(RR)-SN38 dose per injection was 3.15 μmoles/kg. For B16-Luc brain tumours, IF7C(RR)-SN38 formulated with Cremophore EL was used at the dosage 7.0 μmoles/kg. Irinotecan (CPT-11), a water soluble SN38 prodrug, was dissolved in PBS and intravenously injected into mice at 50 μmoles /kg. In another set of experiments, brain tumour-bearing mice were treated with IF7C(RR)-SN38 (100 μg or 0.0412 μmoles) dissolved in 10 μl DMSO followed by dilution with 100 μl 10% Solutol HS15 in water. In that case, drug dosage was 2.5 μmoles/kg. Similarly formulated C(RR)-SN38 served as control.
Fig. 4 Effect of IF7C(RR)-SN38 on the dual-tumour model mice. a Dual-tumour model was established with C6-Luc cells in NOD-SCID mice. C6-Luc cells were grown both in brain and under the skin of mice. When tumours in brain and subcutaneous grew by showing photon number more than 2×10^4, IF7C(RR)-SN38 (3.15 μmoles/kg) was injected intravenously daily through tail vein for 9 days. b Effect of IF7C(RR)-SN38 on a dual-tumour model with B16-Luc melanoma cells in C57BL/6 mice. Growth of B16-Luc cells were monitored as in a similar manner as in a, followed by intravenous injection with either IF7C(RR)-SN38 (7.0 μmoles/kg), irinotecan (CPT-11) (50 μmoles/kg) or buffer control daily for 6 days. The drug was diluted in Cremophore EL. In each a and b, error bars denote means ± SEM. Statistical analysis was assessed by Student’s t-test.

[2] = tested on: C6 cells; assay: Cytotoxicity on C6 cells (CellTiter Glo); format: cell-based, rat; details: C6, 2 days, CellTiter Glo, GraphPad Prism; for IC50: unit from plot axis
Procedure: (§1) Drug concentration (OM) Drug concentration ( nM) […]
(§2) Supplementary Fig 7 . Cytotoxicity of peptide-conjugated SN38, free peptide s and unconjugated SN-38 and irinotecan (CPT-11) on C6 and B16 cells cultured in vitro. Rat glioma C6 and mouse melanoma B16 cells were treated with reagents shown along the top panels at the concentration indicated and cultured for 2 days. Cell viability was determined by a CellTiter Glo (Promega) assay. The IC50 of each reagent was determined using GraphPad Prism program. N.D.: not determined.

[3] = tested on: B16 cells; assay: Cytotoxicity on B16 cells (CellTiter Glo); format: cell-based, mouse; details: B16, 2 days, CellTiter Glo, GraphPad Prism; for IC50: unit from plot axis
Procedure: as §1, §2

[4] = tested on: ANXA1 exhibiting a free N-terminus; assay: FCS binding to ANXA1 with free N-terminus; design: species or system human; details: IF7C-A546, 37 °C, 1 h, increase in diffusion time
Procedure: (§3) A mixture of IF7C-A546 with Anxa1 or MC16 (50 μl) was loaded into each well of a 96-well plate and incubated at 37 °C for 1 h. FCS was performed with the MF20 analytical system (Olympus) using a 543 nm He–Ne laser for illumination. Each sample was measured five times with a data acquisition time of 10 sec per measurement. IF7C(RR) binding was defined as an increase in translational diffusion time relative to a control.
(§4) Fig. 2 Binding of IF7 to the ANXA1 N-terminal domain and full-length ANXA1 protein in vitro. a Plate binding assay of N-terminal biotinylated IF7C(RR) to human MC16 peptide and its mutants. Each synthetic MC16 and its mutant peptide (10 nmoles) was bound to maleimide-activated plastic well through its C-terminal cysteine residue. Biotinylated IF7C(RR) peptide (1 μg/mL) was added to each well and binding of biotinylated peptide was detected by peroxidase-conjugated streptavidin and peroxidase colour reaction. b FCS analysis of IF7 with ANXA1 (left) and with MC16 peptides (right) in solution. […] The proposed model was further validated by dG scoring, which was calculated using MOE software with GBVI/WSA, a program allows us to compare calculated and observed energetics.[59] The IF7 docking pose was calculated to be −3.7 kcal/mol.

[5] = tested on: N-terminally His-tagged ANXA1; assay: FCS binding to N-terminally His-tagged ANXA1; design: species or system human; details: IF7C-A546, 37 °C, 1 h, diffusion time
Procedure: as §3, §4

[6] = biological target: T1, Annexin A1 (Homo sapiens, UniProt P04083); assay: QCM
T1 chain: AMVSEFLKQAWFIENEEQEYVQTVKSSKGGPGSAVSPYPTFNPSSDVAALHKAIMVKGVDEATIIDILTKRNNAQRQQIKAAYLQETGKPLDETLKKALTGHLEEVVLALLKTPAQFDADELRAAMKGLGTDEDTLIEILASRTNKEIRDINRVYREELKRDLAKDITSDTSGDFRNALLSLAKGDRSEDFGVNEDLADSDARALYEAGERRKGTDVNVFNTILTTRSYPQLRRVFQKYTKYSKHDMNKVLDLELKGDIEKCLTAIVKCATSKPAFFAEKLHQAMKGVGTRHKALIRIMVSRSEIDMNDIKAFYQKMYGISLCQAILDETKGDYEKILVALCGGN

[7] = biological target: T2, MC16 (Annexin A1 N-terminal peptide), tetrameric (Homo sapiens); assay: QCM
T2 chain: MAMVSEFLKQAWFIEC

CCc1c2c(nc3ccc(OC(=O)N4CCC(N5CCCCC5)CC4)cc13)-c1cc3c(c(=O)n1C2)COC(=O)[C@]3(O)CC [Irinotecan]
brain tumour growth (photon number) [1]: minimally suppressed brain tumour growth
subcutaneous tumour growth (photon number) [1]: suppressed subcutaneous tumour growth
logIC50 [2]: 4.103
IC50 ([2]; Rattus norvegicus, 48 h): 12700 nM
logIC50 [3]: 4.443
IC50 ([3]; Mus musculus, 48 h): 27700 nM

CCc1c2c(nc3ccc(O)cc13)-c1cc3c(c(=O)n1C2)COC(=O)[C@]3(O)CC [SN-38]
logIC50 [2]: 1.433
IC50 [2]: 27.1 nM
logIC50 [3]: 1.499
IC50 [3]: 31.6 nM

IFLLWQRCRR [IF7C(RR), IF7 with C-terminal cysteine extended by two arginines]
binding in solution to untagged ANXA1 [4]: increased significantly compared to the control
binding in solution to N-terminally His-tagged ANXA1 [5]: did not significantly increase

B1: IF7C(RR) peptide (peptide)
chain: IFLLWQRCRR
Kd [6]: 60.1 nM

B2: IF7C(RR) peptide (peptide)
chain: IFLLWQRCRR
modifications: not fully specified (residue 8); also: tetramer on 4-arm PEG via Cys
Kd [7]: 247 nM
